Results on one compound are retold here after patent publication US11007128B2, “Composition for preventing or treating dental erosion” (MEDA OTC AB, priority 2014, dated 2021).

For assay [1] the following is noted: 0.2% HF solution, pH 2.0, ~0.1 mol/l F; sound enamel; cited from earlier work.
The conditions of assay [2]: 0.15% HF at pH 2.58, 5 minutes at 37° C.; then 2% citric acid 15 minutes at 37° C.
Excerpt: A low vacuum scanning electron microscope, JEOL JSM 6610 LV, was used for studying surfaces.
SEM pictures were taken with 5000 times magnification (SEM×5000).
A human ex vivo tooth (premolar) was received from a dentist practice. The tooth was stored in Ringer solution and kept in refrigerator.
The effect of the HF treatment on HA surfaces was verified using an ex vivo human premolar tooth. The tooth had been split into two halves before the experiment (tooth 1:1 and tooth 1:2). The two tooth halves were rinsed with distilled water. One tooth half was placed in a 50 ml plastic bottle containing 2% citric acid and then allowed to incubate at 37° C. for 15 minutes under gentle agitation. The tooth was then rinsed with distilled water for a few minutes and then put on tissue paper to dry. […] The tooth half was rinsed with distilled water and then immersed in 2% citric acid and then allowed to incubate at 37° C. for 15 minutes under gentle agitation. The tooth was then rinsed with distilled water and left to dry on tissue paper for a few minutes.

For the compound `F` [HF, hydrogen fluoride], the “duration of protective effect against citric acid attack” value in assay [1] is “at least 1 week”. The “SEM: protection of enamel from etching” value in assay [2] is on record as “clearly protected from etching”.
